From article PMC7835950 (Frontiers in Chemistry, 2021)
Like-named read-outs stand apart in the source and are kept apart here.

How the values were obtained:
OGDH and OADH = assay: Mechanism of inhibition of the OGDH and OADH reactions (effective Km and Amax vs inhibitor concentration); assay type: biochemical, rat; conditions: vs 2-oxo substrate; cardiac or hepatic preparations; inhibitor up to 200 μM
Experimental: (§1) The enzyme activities were assayed in the medium (pH 7.0) containing 50 mM MOPS, 1 mM ThDP, 1 mM MgCl2, 1 mM CaCl2, 1 mM dithiothreitol 0.15 mM Coenzyme A, 0.25 mM NAD^+ and various concentrations of 2-oxo substrates (0–10 mM OG or OA) and their phosphonate analogs (0–5,000 μM SP, GP, or AP). Reactions were started by addition of the enzyme preparations to the assay media. The amount of enzyme preparations (0.074 mg protein for the preparation from liver and 0.023 mg protein for the preparation from heart) were chosen to induce the lowest reliably measured reaction rate (ΔA340 = 0.001/min) at 0.01 mM OA without the phosphonates.
(§2) To determine the inhibition constants (Ki), the effective values of Kmeff and Amaxeff , calculated from the hyperbolic or linear approximations as described above, were plotted against the concentration of the inhibitors ([I]). The linear regression of the equation Kmeff/Amaxeff=Km/Amax(1+[I]/Ki) , (Cornish-Bowden, [1979]) was applied to find the Intercept (Km/Amax) and Slope (Km/(Amax*Ki)) of a dependence. The values of Ki were determined as the ratio of the corresponding Intercepts to the Slopes. In the two-site model, the Ki(1) and Ki(2) were calculated separately from the linear approximations of Km,1eff/Amax,1eff vs. [I] and Km,2eff/Amax,2eff vs. [I] dependences, respectively. The standard errors of Ki were determined from means and standard errors of the Intercepts and the Slopes, using the previously described formula for standard deviation of a fraction (Bunik et al., [1999]). The Ki values obtained from the non-linear and linear regression analyses of the experimental data were averaged and presented as Mean ± Standard Error of Mean.

[1] = Stability of the phosphonates and their esters during storage, by NMR; assay type: physicochemical; conditions: trisodium salts
Experimental: Stability of the purified phosphonates and their esterified precursor was analyzed by NMR after storage under the inert (pure argon) or ambient (air) atmosphere and in water solutions. ^1H, ^13C and ^31P NMR spectra were recorded at 400, 100.6, and 161.9 MHz, respectively with a Bruker Avance 400 spectrometer. Chemical shifts were calculated using D2O or CDCl3 as reference standards for trisodium salts and triesters, respectively. The spectra of the phosphonates and their esters before and after storage are shown in Supplementary Figures 1, 2 correspondingly.

OGDH = biological target: T1, OGDH (Rattus norvegicus, UniProt Q5XI78); assay: OADH reaction catalyzed by the enzyme preparation from rat liver, high [OA] (low-affinity OA sites); assay type: biochemical; conditions: for Amax: low-affinity sites
T1 construct: the tissue fractions with the complexes enriched to a degree allowing for a robust detection of the enzymatic activities, have been used; from tissue; host or cells: rat liver
T1 sequence (Q5XI78 41-1023): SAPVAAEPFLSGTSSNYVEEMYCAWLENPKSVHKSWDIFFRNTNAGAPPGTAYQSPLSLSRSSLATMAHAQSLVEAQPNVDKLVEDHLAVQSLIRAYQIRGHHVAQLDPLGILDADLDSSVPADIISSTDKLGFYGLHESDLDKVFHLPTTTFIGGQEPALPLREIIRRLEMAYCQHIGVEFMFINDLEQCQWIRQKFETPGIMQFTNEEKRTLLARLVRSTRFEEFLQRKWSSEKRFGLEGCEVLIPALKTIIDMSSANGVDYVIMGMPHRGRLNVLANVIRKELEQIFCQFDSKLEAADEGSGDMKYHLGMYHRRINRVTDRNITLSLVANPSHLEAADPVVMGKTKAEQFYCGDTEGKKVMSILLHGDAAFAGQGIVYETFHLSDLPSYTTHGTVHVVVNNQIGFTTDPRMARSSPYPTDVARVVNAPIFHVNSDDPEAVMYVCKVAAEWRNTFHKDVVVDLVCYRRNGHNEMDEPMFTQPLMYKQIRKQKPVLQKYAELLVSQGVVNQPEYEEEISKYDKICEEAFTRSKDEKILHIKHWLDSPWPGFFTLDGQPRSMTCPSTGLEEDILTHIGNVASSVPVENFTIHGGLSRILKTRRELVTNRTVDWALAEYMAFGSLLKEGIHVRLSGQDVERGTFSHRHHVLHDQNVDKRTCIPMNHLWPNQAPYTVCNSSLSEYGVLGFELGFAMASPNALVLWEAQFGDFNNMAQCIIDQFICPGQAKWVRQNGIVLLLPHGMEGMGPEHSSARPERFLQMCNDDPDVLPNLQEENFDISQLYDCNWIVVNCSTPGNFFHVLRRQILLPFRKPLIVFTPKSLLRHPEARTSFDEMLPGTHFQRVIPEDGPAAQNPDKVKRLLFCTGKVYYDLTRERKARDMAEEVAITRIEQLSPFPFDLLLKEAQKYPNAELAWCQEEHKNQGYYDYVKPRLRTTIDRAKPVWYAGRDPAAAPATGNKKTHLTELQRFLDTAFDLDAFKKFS
Experimental: Enzymes catalyzing OGDH and OADH reactions were enriched from rat hearts and livers using polyethylene glycol precipitation, as previously described (Artiukhov et al., [2020]).
as §1
Reaction rates were calculated from linear parts of the product accumulation curves (up to 10 min, dependent on the reaction rate), excluding the initial region, where mixing the reagents and solubilization of the preparation affected the optical density.
Non-linear regression was used to approximate the experimental dependences of the reaction rates on the OG or OA concentration according to the Michaelis-Menten equation ( a=Amax*[S]/Km+[S] ) or its sum ( a=Amax*[S]/Km+[S]+Amax,2*[S]/Km,2+[S] ). The former equation describes one type of the active sites. […] The assumption was based on the presence of the two enzymes, OGDH and OADH, in the employed preparations.
The kinetic data were also analyzed by linear regression, using the known methods of the linearization of the Michaelis-Menten equation in the Lineweaver-Burk ( 1/a=1/Amax(1+Km/[S]) ) and Eadie-Hofstee ( a=Amax−Kmv/[S] ) coordinates. Due to the several orders of magnitude difference in the values of Km,1 and Km,2, the linear regression required separate analysis of the dependencies in the intervals of the low and high concentrations of 2-oxoadipate. The Km and Amax values obtained in independent experiments using the non-linear and linear regression analyses of the experimental data, were averaged and presented as Mean ± Standard Error of Mean.
as §2

[2] = high [OA] 0.1–10 mM, Michaelis-Menten, read-out: Ki, MM
[3] = high [OA], Eadie-Hofstee, read-out: Ki, EH
[4] = high [OA], Lineweaver-Burk, read-out: Ki, LB
[5] = high [OA], average, read-out: Ki, Average

SMILES | primary mechanism of inhibition (OGDH and OADH) | stability upon the shelf storage [1] | Amax (OGDH; [I] 0.5 µM) | Amax (OGDH; [I] 2 µM) | Amax (OGDH; [I] 10 µM) | Amax (OGDH; [I] 50 µM) | Amax (OGDH; [I] 200 µM) | Ki (OGDH; [2]) [µM] | Ki (OGDH; [3]) [µM] | Ki (OGDH; [4]) [µM] | Ki (OGDH; [5]) [µM]
O=C(O)CCCCC(=O)P(=O)(O)O [AP, adipoyl phosphonate] | competitive inhibition | high stability | 0.0084 ± 0.0002 µmol/min per mg of protein | 0.0085 ± 0.0002 µmol/min per mg of protein | 0.0090 ± 0.0003 µmol/min per mg of protein | 0.0096 ± 0.0002 µmol/min per mg of protein | 0.0097 ± 0.0010 µmol/min per mg of protein | 50 ± 2 | 47 ± 2 | 46 ± 2 | 47 ± 1
O=C(O)CCCC(=O)P(=O)(O)O [GP, glutaryl phosphonate] | competitive inhibition | high stability |  | 0.0088 ± 0.0004 µmol/min per mg of protein | 0.0093 ± 0.0005 µmol/min per mg of protein | 0.0056 ± 0.0001 µmol/min per mg of protein |  | 1.4 ± 0.2 | 1.3 ± 0.3 | 1.3 ± 0.3 | 1.3 ± 0.2
O=C(O)CCC(=O)P(=O)(O)O [SP, succinyl phosphonate] | competitive inhibition | high stability |  |  | 0.0080 ± 0.0004 µmol/min per mg of protein | 0.0074 ± 0.0002 µmol/min per mg of protein |  | 3.7 ± 0.1 | 2.5 ± 0.4 | 2.1 ± 0.4 | 2.8 ± 0.5
